Laboratory results reported in article PMC7390918, “NVP-CGM097, an HDM2 Inhibitor, Antagonizes ATP-Binding Cassette Subfamily B Member 1-Mediated Drug Resistance” (Frontiers in Oncology, 2020).
pEC50: −log10 of the molar value.

What was measured:
ABCB1 [1] = molecular target: T1, ABCB1 (Homo sapiens, UniProt P08183); assay: biochemical
ABCB1 [2] = molecular target: T1, ABCB1

T1 sequence (P08183 whole entry): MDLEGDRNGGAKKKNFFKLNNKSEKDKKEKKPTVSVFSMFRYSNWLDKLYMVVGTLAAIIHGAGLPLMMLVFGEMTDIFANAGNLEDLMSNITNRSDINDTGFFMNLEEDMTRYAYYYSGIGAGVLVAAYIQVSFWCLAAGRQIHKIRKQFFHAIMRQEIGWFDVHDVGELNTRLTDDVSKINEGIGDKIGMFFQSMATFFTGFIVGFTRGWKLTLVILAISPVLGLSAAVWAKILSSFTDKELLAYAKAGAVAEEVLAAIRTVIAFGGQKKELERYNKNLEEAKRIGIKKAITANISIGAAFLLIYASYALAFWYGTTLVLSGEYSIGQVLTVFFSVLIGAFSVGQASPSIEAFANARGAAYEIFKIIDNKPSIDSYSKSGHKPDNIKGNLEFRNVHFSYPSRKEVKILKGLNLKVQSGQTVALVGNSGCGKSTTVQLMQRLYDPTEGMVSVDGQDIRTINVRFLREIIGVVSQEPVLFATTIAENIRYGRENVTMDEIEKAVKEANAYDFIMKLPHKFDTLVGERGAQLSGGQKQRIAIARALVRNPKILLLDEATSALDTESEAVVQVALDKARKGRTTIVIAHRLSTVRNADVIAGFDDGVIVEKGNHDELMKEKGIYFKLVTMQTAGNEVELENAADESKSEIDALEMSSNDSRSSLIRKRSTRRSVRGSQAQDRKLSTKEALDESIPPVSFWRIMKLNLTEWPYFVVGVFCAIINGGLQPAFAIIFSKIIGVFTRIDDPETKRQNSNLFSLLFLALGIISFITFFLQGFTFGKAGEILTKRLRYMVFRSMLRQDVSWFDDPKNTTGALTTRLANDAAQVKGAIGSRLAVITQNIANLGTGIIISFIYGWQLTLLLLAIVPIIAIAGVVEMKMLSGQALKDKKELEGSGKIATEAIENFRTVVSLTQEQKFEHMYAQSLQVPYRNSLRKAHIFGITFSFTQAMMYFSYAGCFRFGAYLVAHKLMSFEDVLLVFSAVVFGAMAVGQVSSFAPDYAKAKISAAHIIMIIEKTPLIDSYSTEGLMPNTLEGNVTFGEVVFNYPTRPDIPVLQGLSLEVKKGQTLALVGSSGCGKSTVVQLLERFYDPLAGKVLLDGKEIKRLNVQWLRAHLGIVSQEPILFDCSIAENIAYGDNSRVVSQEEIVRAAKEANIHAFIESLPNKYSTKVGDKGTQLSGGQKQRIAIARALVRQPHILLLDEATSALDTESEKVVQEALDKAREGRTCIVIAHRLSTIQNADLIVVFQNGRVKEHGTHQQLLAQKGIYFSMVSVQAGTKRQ

pEC50 (ABCB1 [1]) | Structure (SMILES) | [3H]-paclitaxel accumulation and efflux in KB-C2 versus parental KB-3-1 cells (ABCB1 [2])
6.35 | COc1cc2c(cc1OC(C)C)[C@H](c1ccc(Cl)cc1)N(c1ccc(N(C)C[C@H]3CC[C@H](N4CCN(C)C(=O)C4)CC3)cc1)C(=O)C2 [NVP-CGM097] | 
 | CC(=O)O[C@H]1C(=O)[C@@]2(C)[C@H]([C@H](OC(=O)c3ccccc3)[C@]3(O)C[C@H](OC(=O)[C@H](O)[C@@H](NC(=O)c4ccccc4)c4ccccc4)C(C)=C1C3(C)C)[C@]1(OC(C)=O)CO[C@@H]1C[C@@H]2O [paclitaxel] | NVP-CGM097 can block the efflux activity of ABCB1-overexpressing cells, therefore, increasing intracellular paclitaxel accumulation
